Experimental data as given in patent US20210386069A1 (priority 2018, published 2021).

assay: log P by HPLC on a reversed-phase column (C 18), EEC Directive 79/831 Annex V.A8; assay type: physicochemical; conditions: HPLC reversed-phase C 18, 40° C., 0.1% aqueous formic acid and acetonitrile, linear gradient 10% to 95% acetonitrile
Description: In table 1, the log P values were determined in accordance with EEC Directive 79/831 Annex V.A8 by HPLC (High Performance Liquid Chromatography) on a reversed-phase column (C 18), using the method described below:
temperature: 40° C.; mobile phases: 0.1% aqueous formic acid and acetonitrile; linear gradient from 10% acetonitrile to 95% acetonitrile;
If more than one Log P value is available within the same method, all the values are given and separated by “;”.
Calibration was carried out using unbranched alkan-2-ones (comprising 3 to 16 carbon atoms) with known log P values (determination of the log P values by the retention times using linear interpolation between two successive alkanones). lambda-max-values were determined using UV-spectra from 200 nm to 400 nm and the peak values of the chromatographic signals.

Compound | logP
Fc1ccc(Nc2cnc3ccccc3c2)c(-c2cccnc2)c1 [I.001] | 1.39
Cc1nc2ccccc2nc1Nc1cccc(F)c1-c1ccncc1F [I.002] | 2.57
Cc1nc2c(F)c(F)ccc2cc1Nc1ccccc1-c1ccnnc1 [I.003] | 2.28
Cc1cncc(-c2ccccc2Nc2cc3ccc(F)c(F)c3nc2C)c1 [I.004] | 1.99
Cc1cc(-c2ccccc2Nc2cc3ccc(F)c(F)c3nc2C)ccn1 [I.005] | 1.75
Cc1ccncc1-c1ccccc1Nc1cc2ccc(F)c(F)c2nc1C [I.006] | 1.86
Cc1nc2c(F)c(F)ccc2cc1Cc1cccc(F)c1-c1ccncc1 [I.007] | 2.00
Cc1nc2c(F)c(F)ccc2cc1Cc1cccc(F)c1-c1cccnc1 [I.008] | 2.64
Cc1nc2c(F)c(F)ccc2cc1Nc1cccc(F)c1-c1cccnc1 [I.009] | 2.28
Cc1nc2c(F)c(F)ccc2cc1Nc1cccc(F)c1-c1ccncc1 [I.010] | 2.01
Cc1nc2c(F)c(F)ccc2cc1Cc1cccc(F)c1-c1cncnc1 [I.011] | 2.76
Cc1nc2c(F)cccc2cc1Nc1cc(F)ccc1-c1ccncc1F [I.012] | 2.95
Cc1nc2c(F)c(F)ccc2cc1Nc1cccc(F)c1-c1cncnc1 [I.013] | 2.61
Cc1nc2c(F)cccc2nc1Nc1cccc(F)c1-c1ccncc1F [I.015] | 2.67
Cc1nc2c(F)c(F)ccc2cc1Nc1cccc(F)c1-c1ccnnc1 [I.016] | 2.44
Cc1nc2c(F)c(F)ccc2cc1Cc1cccc(F)c1C1=CCCCO1 [I.017] | 4.41
Cc1nc2c(F)c(F)ccc2cc1Nc1cccc(F)c1C1=CCCCO1 [I.018] | 4.44
Cc1nc2c(F)c(F)ccc2cc1Nc1ccccc1-c1ccc(C#N)nc1 [I.019] | 3.25
Cc1nc2c(F)c(F)ccc2cc1Nc1ccccc1-c1cncc(C#N)c1 [I.020] | 3.04
Cc1nc2c(F)c(F)ccc2cc1Nc1ccccc1-c1ccncc1C#N [I.021] | 1.41
CCc1cnccc1-c1ccccc1Nc1cc2ccc(F)c(F)c2nc1C [I.022] | 2.08
CCc1ccncc1-c1ccccc1Nc1cc2ccc(F)c(F)c2nc1C [I.023] | 2.08

Compound | logP
CCc1ncccc1-c1ccccc1Nc1cc2ccc(F)c(F)c2nc1C [I.024] | 2.03
Cc1cncc(C)c1-c1ccccc1Nc1cc2ccc(F)c(F)c2nc1C [I.025] | 2.05
Cc1nc2c(F)c(F)ccc2cc1Nc1ccccc1-c1cccc(=O)n1C [I.026] | 2.52
COc1cnccc1-c1ccccc1Nc1cc2ccc(F)c(F)c2nc1C [I.027] | 2.14
COc1cc(-c2ccccc2Nc2cc3ccc(F)c(F)c3nc2C)ccn1 [I.028] | 3.56
COc1cccc(-c2ccccc2Nc2cc3ccc(F)c(F)c3nc2C)n1 [I.029] | 4.66
COc1ccncc1-c1ccccc1Nc1cc2ccc(F)c(F)c2nc1C [I.030] | 1.77
Cc1cc(-c2ccccc2Nc2cc3ccc(F)c(F)c3nc2C)cnc1F [I.031] | 3.69
Cc1cncc(-c2c(F)cccc2Nc2cc3ccc(F)c(F)c3nc2C)c1 [I.032] | 2.26
Cc1cc(-c2c(F)cccc2Nc2cc3ccc(F)c(F)c3nc2C)ccn1 [I.033] | 1.88
Cc1nc2c(F)c(F)ccc2cc1Nc1ccccc1-c1ccncc1Cl [I.034] | 3.37
Cc1nc2c(F)c(F)ccc2cc1Nc1ccccc1-c1cccc(Cl)n1 [I.035] | 4.97
Cc1nc2c(F)c(F)ccc2cc1Nc1ccccc1-c1ccnc(Cl)c1 [I.036] | 3.56
Cc1nc2c(F)c(F)ccc2cc1Nc1ccccc1-c1ccc(Cl)nc1 [I.037] | 3.62
Cc1nc2c(F)c(F)ccc2cc1Nc1ccccc1-c1cccnc1Cl [I.038] | 3.43
Cc1nc2c(F)c(F)ccc2cc1Nc1ccccc1-c1cnccc1Cl [I.039] | 3.22
Cc1nc2c(F)c(F)ccc2cc1Nc1ccccc1-c1cncc(Cl)c1 [I.040] | 3.54
Cc1nc2c(F)c(F)ccc2cc1Cc1cccc(F)c1-c1ccncc1F [I.041] | 3.40
Cc1nc2c(F)c(F)ccc2cc1Cc1cccc(F)c1-c1cccnc1F [I.043] | 3.55
Cc1nc2c(F)c(F)ccc2cc1Cc1cccc(F)c1-c1ccnc(F)c1 [I.044] | 3.65
Cc1nc2c(F)c(F)ccc2cc1Nc1cccc(F)c1-c1ccc(F)nc1 [I.045] | 3.46
Cc1nc2c(F)c(F)ccc2cc1Nc1cccc(F)c1-c1ccnc(F)c1 [I.046] | 3.46

Compound | logP
Cc1nc2c(F)c(F)ccc2cc1Nc1cccc(F)c1-c1cccnc1F [I.047] | 3.35
Cc1nc2c(F)c(F)ccc2cc1Nc1c(F)cccc1-c1ccncc1F [I.048] | 3.04
Cc1nc2c(F)c(F)ccc2cc1Nc1ccc(F)cc1-c1ccncc1F [I.049] | 3.24
Cc1nc2c(F)c(F)ccc2nc1Cc1cccc(F)c1-c1ccncc1F [I.050] | 3.31
Cc1nc2c(F)c(F)ccc2cc1Nc1cccc(F)c1-c1ccncc1F [I.051] | 3.29
Cc1nc2c(F)c(F)ccc2cc1Nc1ccccc1-c1ccnc(F)c1F [I.053] | 3.69
Cc1nc2c(F)c(F)ccc2cc1Nc1ccccc1-c1cc(F)nc(F)c1 [I.054] | 3.91
Cc1nc2c(F)c(F)ccc2cc1Nc1ccccc1-c1ccc(F)nc1F [I.055] | 3.81
Cc1nc2c(F)c(F)ccc2nc1Nc1cccc(F)c1-c1ccncc1F [I.056] | 2.98
Cc1nc2c(F)c(F)ccc2cc1Nc1ccccc1-c1cnccc1C1CC1 [I.057] | 2.05
Cc1nc2c(F)c(F)ccc2cc1Nc1ccccc1-c1ccncc1C1CC1 [I.058] | 2.12
Cc1nc2c(F)c(F)ccc2cc1Nc1ccccc1-c1cccnc1C1CC1 [I.059] | 2.80
CCCc1ncccc1-c1ccccc1Nc1cc2ccc(F)c(F)c2nc1C [I.060] | 2.21
CCCc1cnccc1-c1ccccc1Nc1cc2ccc(F)c(F)c2nc1C [I.061] | 2.31
CCCc1ccncc1-c1ccccc1Nc1cc2ccc(F)c(F)c2nc1C [I.062] | 2.41
Cc1nc2c(F)c(F)ccc2cc1Nc1cccc(F)c1-c1ccncc1C#N [I.063] | 1.46
Cc1nc2c(F)c(F)ccc2cc1Nc1cccc(F)c1-c1cncc(C#N)c1 [I.064] | 3.16
CCOc1ccc(-c2ccccc2Nc2cc3ccc(F)c(F)c3nc2C)cn1 [I.065] | 4.02
CCOc1ncccc1-c1ccccc1Nc1cc2ccc(F)c(F)c2nc1C [I.066] | 4.24
CCc1cnccc1-c1c(F)cccc1Nc1cc2ccc(F)c(F)c2nc1C [I.067] | 2.41
CCc1ccncc1-c1c(F)cccc1Nc1cc2ccc(F)c(F)c2nc1C [I.068] | 2.41
CCc1ncccc1-c1c(F)cccc1Nc1cc2ccc(F)c(F)c2nc1C [I.069] | 2.41

Compound | logP
Cc1cncc(C)c1-c1c(F)cccc1Nc1cc2ccc(F)c(F)c2nc1C [I.070] | 2.28
CSc1ccc(-c2ccccc2Nc2cc3ccc(F)c(F)c3nc2C)cn1 [I.071] | 3.81
CSc1ncccc1-c1ccccc1Nc1cc2ccc(F)c(F)c2nc1C [I.072] | 4.08
COc1ccc(-c2c(F)cccc2Cc2cc3ccc(F)c(F)c3nc2C)cn1 [I.073] | 3.99
COc1cccc(-c2c(F)cccc2Cc2cc3ccc(F)c(F)c3nc2C)n1 [I.074] | 3.79
COc1ncccc1-c1c(F)cccc1Cc1cc2ccc(F)c(F)c2nc1C [I.075] | 3.79
COc1ncccc1-c1c(F)cccc1Nc1cc2ccc(F)c(F)c2nc1C [I.076] | 3.70
COc1ccc(-c2c(F)cccc2Nc2cc3ccc(F)c(F)c3nc2C)cn1 [I.077] | 3.71
COc1ncc(-c2c(F)cccc2Cc2cc3ccc(F)c(F)c3nc2C)cn1 [I.078] | 3.25
COc1c(-c2ccccc2Nc2cc3ccc(F)c(F)c3nc2C)ccnc1F [I.079] | 3.72
COc1cccc(-c2c(F)cccc2Nc2cc3ccc(F)c(F)c3nc2C)n1 [I.080] | 4.55
COc1cnccc1-c1c(F)cccc1Nc1cc2ccc(F)c(F)c2nc1C [I.081] | 2.44
COc1ccncc1-c1c(F)cccc1Nc1cc2ccc(F)c(F)c2nc1C [I.082] | 1.84
COc1cc(-c2c(F)cccc2Nc2cc3ccc(F)c(F)c3nc2C)ccn1 [I.083] | 3.71
Cc1cnc(Cl)c(-c2ccccc2Nc2cc3ccc(F)c(F)c3nc2C)c1 [I.084] | 3.69
Cc1nc2c(F)c(F)ccc2cc1Nc1ccccc1-c1ccc(Cl)nc1C [I.085] | 3.94
Cc1cc(Cl)ncc1-c1ccccc1Nc1cc2ccc(F)c(F)c2nc1C [I.086] | 3.98
Cc1cc(-c2ccccc2Nc2cc3ccc(F)c(F)c3nc2C)cnc1Cl [I.087] | 3.91
COc1ncc(-c2c(F)cccc2Nc2cc3ccc(F)c(F)c3nc2C)cn1 [I.088] | 3.08
Cc1cc(-c2c(F)cccc2Nc2cc3ccc(F)c(F)c3nc2C)cnc1F [I.089] | 3.75
Cc1nc2c(F)c(F)ccc2cc1Nc1ccccc1-c1cncc(F)c1Cl [I.090] | 3.62

same assay, conditions: reversed-phase HPLC column (C 18); preparation examples; log P as defined in table 1 (HPLC, 0.1% aqueous formic acid/acetonitrile)

Compound | chromatographic logP
Nc1cccc(F)c1-c1ccncc1F | 2.38
Cc1nc2c(F)c(F)ccc2cc1Cc1cscc1Br [3-[(4-bromo-3-thienyl)methyl]-7,8-difluoro-2-methylquinoline] | 4.01
ClCc1cscc1Br [3-bromo-4-(chloromethyl)thiophene] | 2.99
Cc1nc2c(F)c(F)ccc2cc1Cc1cccc(F)c1-c1ccc(F)nc1 [I.042, 7,8-difluoro-3-[3-fluoro-2-(6-fluoropyridin-3-yl)benzyl]-2-methylquinoline] | 3.7
